In assay [1] the target is T1, Photoreceptor-specific nuclear receptor (Homo sapiens, UniProt Q9Y5X4). The assay can be described thus: Agonist activity at NR2E3 by beta lactamase transactivation assay. It counts as functional.
The target in assay [2] is T1, Photoreceptor-specific nuclear receptor. The assay can be described thus: Agonist activity at NR2E3 by luciferase NCOR release assay in CHO cells. It counts as functional, cell-based.

T1 sequence (Q9Y5X4 whole entry): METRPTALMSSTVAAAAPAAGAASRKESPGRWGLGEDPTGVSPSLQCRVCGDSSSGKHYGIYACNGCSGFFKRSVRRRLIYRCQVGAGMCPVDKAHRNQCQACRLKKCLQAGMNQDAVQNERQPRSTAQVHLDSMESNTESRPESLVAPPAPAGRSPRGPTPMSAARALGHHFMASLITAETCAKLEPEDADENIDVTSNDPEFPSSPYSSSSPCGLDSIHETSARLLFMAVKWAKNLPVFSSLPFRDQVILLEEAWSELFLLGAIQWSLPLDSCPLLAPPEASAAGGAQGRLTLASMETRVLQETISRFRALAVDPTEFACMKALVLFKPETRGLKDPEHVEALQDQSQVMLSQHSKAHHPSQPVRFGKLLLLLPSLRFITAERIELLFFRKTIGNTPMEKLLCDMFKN

On to `CC(C)(C)C(=O)Nc1ccc2nc(-c3ccc(NC(=O)c4ccccc4Cl)cc3)[nH]c2c1`, for which the 50% effective concentration (EC50) amounted to 6270 nM in assay [1] and 2610 nM in assay [2].
Take `N#CC1(C(=O)Nc2ccc3[nH]c(-c4ccc(NC(=O)c5ccccc5Cl)cc4)nc3c2)CC1`: the EC50 in assay [1] was 17000 nM; in assay [2] it was 10000 nM.
Regarding `O=C(Nc1ccc2nc(-c3ccc(NC(=O)c4cccnc4Cl)cc3)[nH]c2c1)c1ccccc1Cl`, the EC50 in assay [1] turned out to be 4800 nM; in assay [2], 2200 nM.
With `O=C(Nc1ccc(-c2nc3cc(NC(=O)c4ccccc4Cl)ccc3[nH]2)cc1)c1ccccc1`, the results for the EC50 in assay [1] and in assay [2] were 270 nM and 610 nM, respectively.
Regarding `O=C(Nc1ccc2nc(-c3cnn(-c4ccc(F)cc4)c3)[nH]c2c1)c1ccccc1Cl`, the EC50 is over 25000 nM in assay [1] and 4100 nM in assay [2].
Take `O=C(Nc1ccc(-c2nc3ccc(NC(=O)C4CCCC4)cc3[nH]2)cc1)c1ccccc1Cl`: the EC50 in assay [1] came out at 3160 nM; in assay [2] it was 1320 nM.
Regarding `O=C(Nc1ccc(-c2nc3cc(NC(=O)C4CC4(F)F)ccc3[nH]2)cc1)c1ccccc1Cl` (stereo unspecified), the EC50 in assay [1] came out at 2100 nM; in assay [2] it was 3000 nM.
For the molecule `O=C(Nc1ccc(-c2nc3cc(NC(=O)C4(c5ccccc5)CC4)ccc3[nH]2)cc1)c1ccccc1Cl`, the half-maximal effective concentration (EC50) in assay [1] was over 25000 nM; in assay [2], 370 nM.
The corresponding values for `CC1(C(=O)Nc2ccc3nc(-c4ccc(NC(=O)c5ccccc5Cl)cc4)[nH]c3c2)CC1` are 2500 nM and 2900 nM.
Turning to `O=C(Nc1ccc(-c2nc3ccc(NC(=O)C4CC4)cc3[nH]2)cc1)c1ccccc1Cl`, the figures for the EC50 in assay [1] and in assay [2] were 141 nM and 35 nM, respectively.
As to `O=C(Nc1ccc(-c2nc3cc(NC(=O)[C@@H]4C[C@H]4F)ccc3[nH]2)cc1)c1ccccc1Cl`, the EC50 in assay [1] worked out at 720 nM; in assay [2], 260 nM.
Turning to `O=C(Nc1ccc2nc(-c3cc(Cl)cc(Cl)c3O)[nH]c2c1)c1ccccc1Cl`, the EC50 in assay [1] is over 25000 nM; in assay [2] it was 4200 nM.
For `Cc1ccccc1C(=O)Nc1ccc(-c2nc3ccc(NC(=O)c4ccccc4Cl)cc3[nH]2)cc1`, in that order: 260 nM and 330 nM.
For the molecule `O=C(Nc1ccc(-c2nc3cc(NC(=O)c4ccccc4Cl)ccc3[nH]2)cc1)c1ccccc1F`, the EC50 in assay [1] turned out to be 270 nM; in assay [2] it was 170 nM.
For the molecule `O=C(Nc1ccc(-c2nc3cc(NC(=O)C4CCC4)ccc3[nH]2)cc1)c1ccccc1Cl`, the half-maximal effective concentration (EC50) in assay [1] was found to be 1330 nM; in assay [2], 986 nM.
`O=C(Nc1ccc2[nH]c(-c3ccc4c(c3)OCO4)nc2c1)c1ccccc1Cl`: the concentration giving a half-maximal response (EC50) is over 25000 nM in assay [1] and 7200 nM in assay [2].
With `O=C(Nc1cccc(-c2nc3cc(NC(=O)c4ccccc4Cl)ccc3[nH]2)c1)c1ccccc1Cl`, the EC50 in assay [1] was found to be 10000 nM; in assay [2], 4100 nM.
The corresponding values for `CC(C)C(=O)Nc1ccc2nc(-c3ccc(NC(=O)c4ccccc4Cl)cc3)[nH]c2c1` are 316 nM and 147 nM.

What is called EC50 is the concentration needed to bring the measured effect to its halfway point.

These data come from ChEMBL document CHEMBL1149483, “Identification of potent agonists of photoreceptor-specific nuclear receptor (NR2E3) and preparation of a radioligand” (Bioorg Med Chem Lett, 2006).
